Test results as given in patent US7781565B2 (priority 2006, dated 2010).
Entries after “also recorded” stand apart in the source; their conditions may differ.

tested on: NCI-60 cell lines; format: cell-based, human

Row | Substance | Cell Line with which the peptide (and its tripeptide motif) is associated | Cell Line the peptide is associated with (peptide recovered from phage library selection on this NCI-60 cell line) | Cell Line (NCI-60 cell line the peptide is associated with) | Cell Line (NCI-60 cell line the peptide and its motif are associated with)
1 | IGRLLPL | HL-60-Leukemia | – | – | –
2 | SALRVGL | – | BT-549 Breast | – | –
3 | DIALVSP | A549-Lung | – | – | –
4 | FDRGSLT | – | – | SF-295 CNS | –
5 | GGSIDCC | – | SN12C Renal | – | –
6 | PGLRGPA | – | – | – | OVCAR-4 Ovarian
7 | KRESGLG | Hop-62-Lung | – | – | –
8 | AAGGLLV | – | – | HCC-2998-Colon | –
9 | DGGRRTD | – | – | HCT-15 Colon | –
10 | GLWAAVL | – | TK-10 Renal | – | –
11 | LQRGVAR | – | – | – | OVCAR-5 Ovarian
12 | LRSRLGF | SR Leukemia | – | – | –
13 | MSNLAAV | – | – | COLO-205-Colon | –
14 | FTRGGLS | – | – | SNB-75 CNS | –
15 | GFYWLRS | Molt-4-Leukemia | – | – | –
16 | RDLGGRW | – | MCF-7 Breast | – | –
17 | PGFMAGS | – | – | – | UACC62 Melanoma
18 | GAGSSVW | – | CAIK-1 Renal | – | –
19 | GRLYLGI | – | – | SF-295 CNS | –
20 | PAILRVR | – | UO31 Renal | – | –
21 | AGSPLAK | H23-Lung | – | – | –
22 | MGSAVSL | Hop-92-Lung | – | – | –

Row | Substance | Cell Line with which the peptide (and its tripeptide motif) is associated | Cell Line the peptide is associated with (peptide recovered from phage library selection on this NCI-60 cell line) | Cell Line (NCI-60 cell line the peptide is associated with) | Cell Line (NCI-60 cell line the peptide and its motif are associated with)
23 | SELRSIR | – | – | COLO-205-Colon | –
24 | NEGRLGI | – | – | SNB-75 CNS | –
25 | RGLGRPV | – | NCI/ADR-RES Breast | – | –
26 | RTGSSDL | Hop-92-Lung | – | – | –
27 | LRSSLVS | – | RXF393 Renal | – | –
28 | SGIGSGG | Hop-92-Lung | – | – | –
29 | SPGRVAD | – | – | – | IGROV1 Ovarian
30 | GSVSAGA | – | – | HT-29 Colon | –
31 | LGASLLV | – | RXF393 Renal | – | –
32 | PGLGYAL | – | T-47D Breast | – | –
33 | TRYSLRS | – | TK-10 Renal | – | –
34 | AAVETGV | – | – | SF-268 CNS | –
35 | FSPRGSV | – | – | SNB-19 CNS; also recorded: SF-539 CNS | –
36 | TQVEARG | – | HS 578 T Breast | – | –
37 | SVLGSSL | H460-Lung | – | – | –
38 | RAGRGFE | – | – | – | UACC62 Melanoma
39 | CPGSGII | – | – | LOX-IMVI Melanoma | –
40 | FTLRVDK | K-562-Leukemia | – | – | –
41 | YSGSSDF | – | – | COLO-205-Colon | –
42 | GGSRLLL | RPMI-8226-Leukemia | – | – | –
43 | AWAGGDM | – | – | – | DU-145 Prostate
44 | GRVPTVV | – | – | KM-12C Colon | –

Row | Substance | Cell Line with which the peptide (and its tripeptide motif) is associated | Cell Line the peptide is associated with (peptide recovered from phage library selection on this NCI-60 cell line) | Cell Line (NCI-60 cell line the peptide is associated with) | Cell Line (NCI-60 cell line the peptide and its motif are associated with)
45 | LGSSSHI | – | NCI/ADR-RES Breast | – | –
46 | AGLGLLD | – | – | – | SK-OV-3-3 Ovarian
47 | ANGVLEL | Molt-4-Leukemia | – | – | –
48 | FFGRVGI | Molt-4-Leukemia | – | – | –
49 | YGSVALR | – | – | H522-Lung | –
50 | SLGLRNQ | CCRF-CEM Leukemia | – | – | –
51 | GSGILDL | EKVX-Lung | – | – | –
52 | WRLGAVG | – | – | SW620-Colon | –
53 | AKAGVSR | – | MCF-7 Breast | – | –
54 | TICLGLG | – | CAIK-1 Renal | – | –
55 | DWVCRAS | – | – | HT-29 Colon | –
56 | GLVSVEA | A549-Lung | – | – | –
57 | LGLRGWT | – | ACHN Renal | – | –
58 | SGRLWVG | – | RXF393 Renal | – | –
59 | IGVLASA | – | – | – | SK-MEL-28 Melanoma
60 | SYMGAAS | – | SN12C Renal | – | –
61 | RVRAVLG | – | – | – | SK-MEL-28 Melanoma
62 | GSSVSLG | – | BT-549 Breast | – | –
63 | AGGPSSY | – | UO31 Renal | – | –
64 | GRGLRTD | – | – | SF-295 CNS | –
65 | HAELVSL | – | – | KM-12C Colon | –
66 | ATGRVLG | Molt-4-Leukemia | – | – | –

Row | Substance | Cell Line with which the peptide (and its tripeptide motif) is associated | Cell Line the peptide is associated with (peptide recovered from phage library selection on this NCI-60 cell line) | Cell Line (NCI-60 cell line the peptide is associated with) | Cell Line (NCI-60 cell line the peptide and its motif are associated with)
67 | SSGGRSS | – | – | MALME-3M Melanoma | –
68 | GAGRGTP | – | – | HT-29 Colon | –
69 | YSQRSSL | Hop-62-Lung | – | – | –
70 | RQDGGLY | – | – | – | PC3 Prostate
71 | LSLRGGL | – | MDA-MB-231 Breast | – | –
72 | RRSGAGG | – | UO31 Renal | – | –
73 | EGSGVDC | RPMI-8226-Leukemia | – | – | –
74 | AAGREFR | Hop-62-Lung | – | – | –
75 | RGGQRAS | – | – | – | M14 Melanoma
76 | TLGRLSS | – | – | – | DU-145 Prostate
77 | RASYYGV | – | RXF393 Renal | – | –
78 | PRYGVRA | RPMI-8226-Leukemia | – | – | –
79 | NLRVGAE | – | – | – | OVCAR-4 Ovarian
80 | HGGRARL | – | – | HT-29 Colon | –
81 | FAGGSTD | HL-60-Leukemia | – | – | –
82 | LAGRASE | – | – | – | OVCAR-4 Ovarian
83 | FFGGSRA | K-562-Leukemia | – | – | –
84 | LGGLSPH | H322-Lung | – | – | –
85 | SERSSLG | Hop-92-Lung | – | – | –
86 | SGVSISC | – | – | – | IGROV1 Ovarian
87 | GLVRGFP | SR Leukemia | – | – | –
88 | VGAGRFT | – | MDA-MB-231 Breast | – | –

Row | Substance | Cell Line with which the peptide (and its tripeptide motif) is associated | Cell Line the peptide is associated with (peptide recovered from phage library selection on this NCI-60 cell line) | Cell Line (NCI-60 cell line the peptide is associated with) | Cell Line (NCI-60 cell line the peptide and its motif are associated with)
89 | SRSCGGL | – | – | LOX-IMVI Melanoma | –
90 | SGGSVGF | – | MDA-MB-231 Breast | – | –
91 | IRVSAVV | – | HS 578 T Breast | – | –
92 | TGFGAVG | HL-60-Leukemia | – | – | –
93 | AVFRASR | – | CAIK-1 Renal | – | –
94 | GSVLMRG | – | – | – | OVCAR-4 Ovarian
95 | GVYWLRS | – | TK-10 Renal | – | –
96 | HGGRYRH | – | – | – | UACC 257 Melanoma
97 | GGSGIGS | Hop-92-Lung | – | – | –
98 | VRAVCLM | – | – | SNB-75 CNS | –
99 | LGLVSTT | – | – | HT-29 Colon | –
100 | FVARLRV | – | TK-10 Renal | – | –
101 | TGRLSAA | – | – | – | UACC62 Melanoma
102 | RVGAGWP | – | BT-549 Breast | – | –
103 | HGLVTHN | – | – | MALME-3M Melanoma | –
104 | GGVRLGG | – | – | – | PC3 Prostate
105 | VGRAGGL | – | MDA-MB-231 Breast | – | –
106 | LLGIGGS | – | – | – | SK-MEL-28 Melanoma
107 | AVSGRGW | Molt-4-Leukemia | – | – | –
108 | FGVSQVH | – | CAIK-1 Renal | – | –
109 | GVLTRGN | – | – | – | OVCAR-8 Ovarian
110 | GGSTVPQ | – | – | – | OVCAR-8 Ovarian

Row | Substance | Cell Line with which the peptide (and its tripeptide motif) is associated | Cell Line the peptide is associated with (peptide recovered from phage library selection on this NCI-60 cell line) | Cell Line (NCI-60 cell line the peptide is associated with) | Cell Line (NCI-60 cell line the peptide and its motif are associated with)
111 | GLREVQD | – | HS 578 T Breast | – | –
112 | TGVRNSP | – | UO31 Renal | – | –
113 | VYYALRS | – | – | KM-12C Colon | –
114 | GGGRRAL | – | – | – | PC3 Prostate
115 | GLVGGSS | H460-Lung | – | – | –
116 | AAVGGRV | – | – | – | M14 Melanoma
117 | LLRAGVR | – | UO31 Renal | – | –
118 | RGVFYGK | H322-Lung | – | – | –
119 | IAMAGLR | – | – | – | SK-MEL-2 Melanoma
120 | VYGGRSE | – | CAIK-1 Renal | – | –
121 | HIGLGGL | – | – | SF-295 CNS | –
122 | SNPGSGS | – | – | – | UACC62 Melanoma
123 | PAFGPSR | RPMI-8226-Leukemia | – | – | –
124 | SGPAGSF | – | – | – | OVCAR-4 Ovarian
125 | PTVSAGL | – | NCI/ADR-RES Breast | – | –
126 | RGVVSGV | Hop-92-Lung | – | – | –
127 | RLRLSSW | – | TK-10 Renal | – | –
128 | THVGGVR | – | – | – | OVCAR-8 Ovarian
129 | VDVGGAG | – | – | – | 786-0 Renal
130 | GEGGSGG | – | – | – | OVCAR-5 Ovarian
131 | GCDGGSA | H23-Lung | – | – | –
